The text below walks through data of ChEMBL document CHEMBL1201862, “PubChem BioAssay data set” (2004).

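Values below derive from 48-hour exposures of cells grown in 96-well plates, with endpoints linearly interpolated between the two concentrations bracketing the appropriate inhibition level. The concentration for 50% growth inhibition is given as GI50.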 Calls of active or inactive are those of the source. No stated cut-off is given here; in the data, active = GI50 up to about 1.1 µM and inactive = higher.

Some test systems named below: HL-60; CCRF-CEM; HCT-116; Malme-3M; ACHN; SK-MEL-5; KM12; COLO 205; SNB-19; NCI-H460; K562; SF-539; TK-10; HOP-92; OVCAR-3; DU-145; RPMI-8226; UO-31; 786-0; SK-OV-3.
Assay in all cases: NCI-60 cell line screen, 48 h

For the molecule `O=C(O)c1cccc(SSc2cccc(C(=O)O)c2)c1`, the GI50 was > 100 µM (inactive) in the test with HL-60; 28.8 µM (inactive) with CCRF-CEM; > 100 µM (inactive) in the test with HCT-116; > 100 µM (inactive) with Malme-3M; > 100 µM (inactive) in the test with ACHN; > 100 µM (inactive) in the test on SK-MEL-5. Moreover, the GI50 with KM12, with COLO 205, in the test on SNB-19, in the test on NCI-H460, with K562 and in the test with SF-539 was > 100 µM (inactive) in each case. The GI50 in the test on TK-10, in the test on HOP-92, in the test on OVCAR-3, in the test with DU-145, in the test with RPMI-8226 and in the test with UO-31 was > 100 µM (inactive) each time. In addition, the GI50 with 786-0 and in the test on SK-OV-3 was > 100 µM (inactive) throughout.

In the case of `Clc1ccc(CSCc2ccc(Cl)cc2Cl)c(Cl)c1`, the GI50 with HL-60 is 39.7 µM (inactive); in the test on CCRF-CEM, 22.2 µM (inactive); in the test with HCT-116, 41.4 µM (inactive); in the test with Malme-3M it was 28.2 µM (inactive); with ACHN, > 100 µM (inactive); with SK-MEL-5, 29.9 µM (inactive). Moreover, the GI50 is 40.2 µM (inactive) in the test with KM12; 65.8 µM (inactive) in the test with COLO 205; > 100 µM (inactive) in the test with SNB-19; 95.9 µM (inactive) with NCI-H460; 57.5 µM (inactive) in the test on K562; > 100 µM (inactive) in the test with SF-539. For the same molecule, the GI50 is > 100 µM (inactive) with TK-10; 54.2 µM (inactive) in the test with HOP-92; 88.3 µM (inactive) with OVCAR-3; 39.6 µM (inactive) in the test with DU-145; 28.1 µM (inactive) in the test on RPMI-8226; > 100 µM (inactive) in the test with UO-31. The GI50 with 786-0 was 60.8 µM (inactive); in the test on SK-OV-3, > 100 µM (inactive).

For the molecule `O=S(=O)(/N=C(\NO)Nc1ccc(Cl)cc1)C1CC=C(c2ccon2)S1` (stereo not drawn), the GI50 is 1.18 µM (inactive) in the test on HL-60; 12.2 µM (inactive) in the test on CCRF-CEM; 15.6 µM (inactive) in the test on HCT-116; 1.55 µM (inactive) in the test with Malme-3M; 13 µM (inactive) with ACHN; 20.4 µM (inactive) with SK-MEL-5. In addition, the GI50 with KM12 was 46.5 µM (inactive); with COLO 205, 15.7 µM (inactive); with SNB-19 it was 30.1 µM (inactive); with NCI-H460, 16 µM (inactive); in the test with K562, 7.1 µM (inactive); in the test with SF-539 it was 1.2 µM (inactive). The GI50 in the test with TK-10 is 14.4 µM (inactive); in the test with HOP-92, 10.3 µM (inactive); in the test on OVCAR-3 it was 22.5 µM (inactive); in the test with DU-145, 55.3 µM (inactive); in the test with RPMI-8226, 6.07 µM (inactive); in the test on UO-31, 9.55 µM (inactive). The GI50 with 786-0 is 2.88 µM (inactive); with SK-OV-3, > 100 µM (inactive).

As to `C[C@]12C=CC(=O)C=C1[C@@H](F)C[C@H]1[C@@H]3CC[C@](O)(C(=O)CO)[C@@]3(C)C[C@H](O)[C@@]12F`, the GI50 in the test on HL-60 is > 100 µM (inactive); with CCRF-CEM, 0.543 µM (active); in the test on HCT-116 it was > 100 µM (inactive); in the test with Malme-3M, > 100 µM (inactive); with ACHN, > 100 µM (inactive); in the test on SK-MEL-5 it was > 100 µM (inactive). Also, the GI50 in the test with KM12, in the test on COLO 205, with SNB-19, in the test with NCI-H460, with K562 and with SF-539 was > 100 µM (inactive) each time. The GI50 with TK-10 was > 100 µM (inactive); in the test on HOP-92 it was > 100 µM (inactive); in the test with OVCAR-3, > 100 µM (inactive); in the test on DU-145, > 100 µM (inactive); in the test with RPMI-8226 it was > 87.5 µM (inactive); with UO-31 it was > 100 µM (inactive). The GI50 was > 100 µM (inactive) in the test with 786-0 and 3.33 µM (inactive) in the test with SK-OV-3.

As for `C(/Cc1ccc2c(c1)OCO2)=N\N=C1NCCCN1`, the GI50 is 31.6 µM (inactive) with HL-60; 48.5 µM (inactive) with CCRF-CEM; 46.2 µM (inactive) with HCT-116; 64.4 µM (inactive) in the test with Malme-3M; 28 µM (inactive) in the test with ACHN; 25 µM (inactive) in the test with SK-MEL-5. Also, the GI50 in the test on KM12 is > 100 µM (inactive); with COLO 205 it was 57 µM (inactive); with SNB-19, > 100 µM (inactive); in the test with NCI-H460, 19 µM (inactive); in the test on K562 it was 35.1 µM (inactive); in the test on SF-539, 50.5 µM (inactive). For the same molecule, the GI50 in the test on TK-10 was > 100 µM (inactive); in the test on HOP-92 it was 70.1 µM (inactive); in the test on OVCAR-3, 80.2 µM (inactive); with DU-145, 67.5 µM (inactive); in the test with RPMI-8226, 56.1 µM (inactive); with UO-31, 38.2 µM (inactive). For the same molecule, the GI50 in the test on 786-0 was 78.2 µM (inactive); in the test on SK-OV-3 it was 42.1 µM (inactive).

With `COc1cc2c(c(OC)c1)C(=O)O[C@H](C)CCCC/C=C/C2`, the GI50 in the test with HL-60 was 0.824 µM (active); in the test on CCRF-CEM, 2.26 µM (inactive); with HCT-116, 8.61 µM (inactive); in the test with Malme-3M, 13.1 µM (inactive); in the test with ACHN, 12.5 µM (inactive); in the test with SK-MEL-5, 5.71 µM (inactive). Further, the GI50 in the test with KM12 is 9.35 µM (inactive); with COLO 205 it was 10.9 µM (inactive); in the test on SNB-19, 16.2 µM (inactive); in the test on NCI-H460, 11.1 µM (inactive); in the test with K562, 6.24 µM (inactive); in the test with SF-539 it was 10.9 µM (inactive). The GI50 in the test with TK-10 was 15.8 µM (inactive); with HOP-92, 9.77 µM (inactive); in the test with OVCAR-3, 9.38 µM (inactive); with DU-145, 11.7 µM (inactive); in the test with RPMI-8226, 9.12 µM (inactive); in the test on UO-31, 13.5 µM (inactive). In addition, the GI50 in the test with 786-0 was 10.9 µM (inactive); in the test with SK-OV-3, 45.9 µM (inactive).

For `O=c1[nH]c2ccc(CC(=S)N3CCN(c4ccccc4)CC3)cc2o1`, the GI50 with HL-60 was 6.18 µM (inactive); with CCRF-CEM it was 71.3 µM (inactive); in the test with HCT-116 it was > 80.5 µM (inactive); in the test on Malme-3M, 4.78 µM (inactive); in the test on ACHN, > 100 µM (inactive); in the test on SK-MEL-5, 48.9 µM (inactive). Further, the GI50 was 63.4 µM (inactive) in the test with KM12; 97.7 µM (inactive) in the test with COLO 205; > 100 µM (inactive) in the test with SNB-19; > 100 µM (inactive) in the test with NCI-H460; 53.2 µM (inactive) with K562; > 67.8 µM (inactive) with SF-539. In addition, the GI50 in the test on TK-10 is > 100 µM (inactive); with HOP-92 it was 84.9 µM (inactive); in the test with OVCAR-3 it was > 100 µM (inactive); in the test on DU-145, > 100 µM (inactive); with RPMI-8226, > 66.5 µM (inactive); in the test with UO-31 it was > 100 µM (inactive). Further, the GI50 was > 90.2 µM (inactive) in the test on 786-0 and > 100 µM (inactive) in the test with SK-OV-3.

Regarding `Nc1ncnc2c1ccn2CC=C(CO)CO`, the GI50 with HL-60, with CCRF-CEM, with HCT-116, in the test on Malme-3M, in the test with ACHN and in the test on SK-MEL-5 was > 100 µM (inactive) throughout. Besides, the GI50 in the test with KM12, in the test on SNB-19, in the test with NCI-H460, in the test on K562, with SF-539 and in the test on TK-10 was > 100 µM (inactive) throughout. For the same molecule, the GI50 in the test with HOP-92, in the test with OVCAR-3, with DU-145, in the test with RPMI-8226, in the test on UO-31 and in the test with 786-0 was > 100 µM (inactive) throughout. Moreover, in the test on SK-OV-3, the GI50 is > 100 µM (inactive).

Take `NC(N)=NCc1ccc2c(c1)OCO2`: the GI50 with HL-60 was 60.3 µM (inactive); in the test on CCRF-CEM, 94 µM (inactive); in the test with HCT-116, 78.3 µM (inactive); with Malme-3M it was 31.1 µM (inactive); in the test on ACHN it was 65.5 µM (inactive); with SK-MEL-5, 24 µM (inactive). Also, the GI50 with KM12 is 50 µM (inactive); with SNB-19, > 100 µM (inactive); with NCI-H460, > 100 µM (inactive); in the test on K562 it was > 100 µM (inactive); in the test on SF-539, 42.7 µM (inactive); with TK-10 it was > 100 µM (inactive). Besides, the GI50 in the test on HOP-92 was 54.1 µM (inactive); in the test with OVCAR-3 it was 97.3 µM (inactive); in the test on DU-145 it was > 100 µM (inactive); in the test with RPMI-8226 it was 74 µM (inactive); in the test with UO-31, > 100 µM (inactive); in the test with 786-0 it was 50.1 µM (inactive). Besides, the GI50 with SK-OV-3 is > 100 µM (inactive).

As to `C=C(C)C(CC=C(C)C)Cc1c(O)cc(OC)c2c1OC(c1ccc(O)cc1O)C(O)C2=O` (stereo not drawn), the GI50 was > 100 µM (inactive) with HL-60; 50.8 µM (inactive) in the test with CCRF-CEM; 17.3 µM (inactive) with HCT-116; 17.7 µM (inactive) in the test on Malme-3M; 20.4 µM (inactive) with ACHN; 18.5 µM (inactive) in the test with SK-MEL-5. Besides, the GI50 is 12 µM (inactive) with KM12; 16.3 µM (inactive) in the test with COLO 205; 15.5 µM (inactive) in the test on SNB-19; 15.5 µM (inactive) with NCI-H460; > 100 µM (inactive) with K562; 15.9 µM (inactive) with SF-539. Besides, the GI50 with TK-10 is 21.8 µM (inactive); with HOP-92, 14.6 µM (inactive); with OVCAR-3, 16.7 µM (inactive); in the test on DU-145, 18.3 µM (inactive); with RPMI-8226 it was > 100 µM (inactive); in the test on UO-31 it was 15.9 µM (inactive). Besides, the GI50 in the test with 786-0 is 16.6 µM (inactive); in the test with SK-OV-3, 16.8 µM (inactive).
